Measurements as given in patent publication US20240033207A1, “TOPICALLY ADMINISTRABLE LYSATE (LY) OF DEDIFFERENTIATED CELLS OF THE PLANT HELICHRYSUM STOECHAS FOR ELIMINATING OR REDUCING INFLAMMATION OF THE SKIN” (SOCIETE D'EXPLOITATION DE PRODUITS POUR LES INDUSTRIES …, priority 2020, published 2024).
Marks after values point to notes of the source that are not given here.

System: normal human keratinocytes (NHEK) cocultured with dendritic cells (DC)
Test: Coculture of primary human keratinocytes with dendritic cells, PMA/A23187/PUFA stimulation, lipid mediators in supernatant by LC-MS/MS
Format: cell-based
Source text: Dendritic cells form part of the cells of the cutaneous immune system, and they are involved in the early inflammatory response. This model is targeted at mimicking the interactions which take place naturally in the skin between the keratinocytes and the cells of the immune system, and it makes it possible to evaluate the impact of active principles on the processes of resolution of inflammation. Briefly, normal human keratinocytes (NHEK) are inoculated in inserts and cultured without contact with dendritic cells (DC) inoculated in the bottom of the wells. The cells are pretreated with the composition CA or glycerol. After 20 hours of incubation, the inflammatory stimulus (mixture of phorbol 12-myristate 13-acetate (PMA) and of calcium ionophore A23187), polyunsaturated fatty acids (PUFAs, lipid precursors of inflammation mediators, eicosanoids) and the compounds (composition CA or glycerol) were again added and incubated for 1 hour. Subsequently, the culture supernatants were collected for analysis of lipid mediators. The experiments were replicated three times. […] The amounts of 5-HETE, LTB4, 12-HETE, 15-HETE and 17-HDOHE are measured by the use of an LC-MS/MS method using a UPLC system (Agilent LC1290 Infinity) coupled to an Agilent 6490 triple quadrupole mass spectrometer (Agilent Technologies) equipped with electrospray ionization operating in negative mode, and are expressed in picograms per culture well (pg/well). The values obtained were expressed as mean+/-sem [standard error of the mean=standard deviation/square root (number of values)]. For each condition, the percentages of activation were calculated as follows: % activation=[mean (condition)]/[mean (stimulated cells)]×100-100. • stimulated cells: PMA/A23187/PUFA-treated cells in the case where the condition studied is the treatment with glycerol. • stimulated cells: cells treated with PMA/A23187/PUFA+0.1% DMSO in the case where the condition studied is the treatment with the composition CA. The statistical analysis was carried out by a Student's test and a significance threshold was set at 5%, the conditions being compared in pairs. A difference between the effectiveness of two products was considered: • significant if p<0.05; • “at the limit of significance” if 0.05≤p<0.1; • and not significant if p>0.1.

[1] = 0.01%, PMA/A23187/PUFA-stimulated coculture supernatant, proresolving mediator
[2] = 0.01%, vs respective stimulated cells (PMA/A23187/PUFA for glycerol, + 0.1% DMSO for composition CA)
[3] = 0.05%, PMA/A23187/PUFA-stimulated NHEK/DC coculture supernatant, proinflammatory mediator
[4] = 0.05%, vs PMA/A23187/PUFA-treated cells

With OCC(O)CO [Glycerol] the “12-HETE (pg/well) Mean +/− SEM” value [1] was 15 +/− 1 pg/well, the “15-HETE (pg/well) Mean +/− SEM” value [1] was 273 +/− 26 pg/well and the “17-HDOHE (pg/well) Mean +/− SEM” value [1] was 16654 +/− 1409 pg/well. The 12-HETE % activation [2] was 58%^15, the 15-HETE % activation [2] was 63%* and the 17-HDOHE % activation [2] was “+13%”. The “5-HETE (pg/well) Mean +/− SEM” value [3] was 1152 +/− 201 pg/well, the “LTB4 (pg/well) Mean +/− SEM” value [3] was 400 +/− 38 pg/well and the 5-HETE % activation [4] was 144%*. The LTB4 % activation [4] was 88%*.
